In patent publication US9650395B2, “Antibacterial compounds and methods for use” (PTC Therapeutics, Inc., priority 2011, dated 2017):
Like-named read-outs stand apart in the source and are kept apart here.

Key:
[1] = test system: super sensitive Gram-negative Escherichia coli (E. coli) BAS849; assay: Antibacterial activity, microbroth dilution MIC, E. coli BAS849; format: cell-based; conditions: for MIC: Escherichia coli, read-out: MIC, BAS849
[2] = test system: control Gram-negative E. coli 25922 strain; assay: Antibacterial activity, microbroth dilution MIC, E. coli 25922; format: cell-based, Escherichia coli; conditions: E. coli 25922, microbroth dilution; for MIC: Escherichia coli, read-out: MIC, 25922
[3] = test system: Gram-positive Staphylococcus aureus (S. aureus) 29213; assay: Antibacterial activity, microbroth dilution MIC, S. aureus 29213; format: cell-based; conditions: S. aureus 29213, microbroth dilution; for MIC: Staphylococcus aureus, read-out: MIC, 29213
[4] = test system: quinolone resistant E. coli LZ3111; assay: Antibacterial activity, MIC, quinolone resistant E. coli LZ3111; format: cell-based, Escherichia coli; conditions: for MIC: Escherichia coli, read-out: MIC, LZ3111
Description: (§1) The antibacterial activity from a microbroth dilution method may be presented as the minimum inhibitory concentration (MIC in […]). The MIC value is the lowest concentration of a drug which prevents macroscopically visible bacterial growth under test conditions.
Mutations in these regions are known to confer a high level resistance to the quinolone class of antibiotics.

[5] = test system: E. coli ELZ4000 (MDR clinical isolate); assay: Antibacterial activity, MIC, MDR E. coli ELZ4000; format: cell-based, Escherichia coli; conditions: E. coli ELZ4000, MDR clinical isolate; for MIC: Escherichia coli, read-out: MIC ELZ4000
[6] = test system: E. coli ELZ4251 (MDR clinical isolate); assay: Antibacterial activity, MIC, MDR E. coli ELZ4251; format: cell-based, Escherichia coli; conditions: E. coli ELZ4251, MDR clinical isolate; for MIC: Escherichia coli, read-out: MIC ELZ4251
[7] = test system: Acinetobacter baumannii (A. baumannii) BAA747; assay: Antibacterial activity, MIC, A. baumannii BAA747; format: cell-based; conditions: A. baumannii BAA747; for MIC: Acinetobacter baumannii, read-out: MIC BAA747
[8] = test system: Klebsiella pneumoniae (K. pneumoniae) 35657; assay: Antibacterial activity, MIC, K. pneumoniae 35657; format: cell-based; conditions: for MIC: Klebsiella pneumoniae
[9] = test system: resistant A. baumannii MXX2240 (MDR clinical isolate); assay: Antibacterial activity, MIC, resistant A. baumannii MXX2240; format: cell-based, Acinetobacter baumannii; conditions: resistant A. baumannii MMX2240, MDR clinical isolate; for MIC: Acinetobacter baumannii, read-out: MIC MMX2240
[10] = test system: resistant K. pneumoniae MXX1232 (MDR clinical isolate); assay: Antibacterial activity, MIC, resistant K. pneumoniae MXX1232; format: cell-based, Klebsiella pneumoniae; conditions: resistant K. pneumoniae MMX1232, MDR clinical isolate; for MIC: Klebsiella pneumoniae, read-out: MIC MMX1232
[11] = test system: Pseudomonas aeruginosa (P. aeruginosa) 27853; assay: Antibacterial activity, MIC, P. aeruginosa 27853; format: cell-based; conditions: P. aeruginosa 27853; for MIC: Pseudomonas aeruginosa, read-out: MIC 27853
Description: as §1
Antibacterial activity of test compounds against the Gram-negative bacterium Pseudomonas aeruginosa (P. aeruginosa) 27853 is shown in Table 5.

[12] = test system: Haemophilus influenzae (H. influenzae) 49247; assay: Antibacterial activity, MIC, H. influenzae 49247; format: cell-based; conditions: H. influenzae 49247; for MIC: Haemophilus influenzae, read-out: MIC 49247
Outline: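 Antibacterial activity against the Gram-negative organism Haemophilus influenzae strain 49247 was measured by microbroth dilution. The minimum inhibitory concentration (MIC) was taken as the lowest drug concentration that stopped bacterial growth from being visible to the naked eye under the test conditions.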

[13] = test system: Moraxella catarrhalis (M. catarrhalis) 25238; assay: Antibacterial activity, MIC, M. catarrhalis 25238; format: cell-based; conditions: M. catarrhalis 25238; for MIC: Moraxella catarrhalis, read-out: MIC 25238
[14] = test system: Neisseria meningitidis (N. meningitidis) 13090; assay: Antibacterial activity, MIC, N. meningitidis 13090; format: cell-based; conditions: N. meningitidis 13090; for MIC: Neisseria meningitidis, read-out: MIC 13090
[15] = E. coli BAS849, microbroth dilution

SMILES	MIC [1, 15] [mg/L]	MIC [2] [mg/L]	MIC [3] [mg/L]	MIC [4] [mg/L]	MIC [5] [mg/L]	MIC [6] [mg/L]	MIC [7] [mg/L]	MIC [8] [mg/L]	MIC [9] [mg/L]	MIC [10] [mg/L]	MIC [11] [mg/L]	MIC [12] [mg/L]	MIC [13] [mg/L]	MIC [14] [mg/L]	other results
CCc1c(-c2ccc(N3C[C@H]4CC[C@@H](NC)[C@H]4C3)cc2)[nH]c(=O)c(C(=O)O)c1O.Cl [Cpd 256, 5-ethyl-4-hydroxy-6-{4-[(3aR,4R,6aS)-4-(methylamino)hexahydrocyclopenta[c]pyrrol-2(1H)-yl]phenyl}-2-oxo-1,2-dihydropyridine-3-carboxylic acid hydrochloride]	< 1	1 to 3.5	3.5 to 12.5	1 to 3.5	12.5 to 150	3.5 to 12.5	12.5 to 150	1 to 3.5	12.5 to 150	12.5 to 150	12.5 to 150	3.5 to 12.5	1 to 3.5	< 1	
CCc1c(-c2ccc(N3CCC(N4CCCC4)C3)cc2)[nH]c(=O)c(C(=O)O)c1O.Cl (stereo not drawn) [Cpd 257, 6-[4-(1,3′-bipyrrolidin-1′-yl)phenyl]-5-ethyl-4-hydroxy-2-oxo-1,2-dihydropyridine-3-carboxylic acid hydrochloride]	< 1	< 1	12.5 to 150	3.5 to 12.5	3.5 to 12.5	1 to 3.5	1 to 3.5	1 to 3.5	12.5 to 150	12.5 to 150	12.5 to 150	1 to 3.5	1 to 3.5	< 1	
CCc1c(-c2ccc(N3C[C@H]4CCC[C@H](N)[C@H]4C3)cc2)[nH]c(=O)c(C(=O)O)c1O.Cl [Cpd 258, 6-{4-[(3aR,4S,7aS)-4-aminooctahydro-2H-isoindol-2-yl]phenyl}-5-ethyl-4-hydroxy-2-oxo-1,2-dihydropyridine-3-carboxylic acid hydrochloride]	< 1	1 to 3.5	3.5 to 12.5	< 1	12.5 to 150	3.5 to 12.5	12.5 to 150	1 to 3.5	3.5 to 12.5	12.5 to 150	12.5 to 150	3.5 to 12.5	1 to 3.5	< 1	
Cc1c(-c2ccc(N3C[C@@H]4[C@@H](N)[C@@H]4C3)cc2)[nH]c(=O)c(C(=O)O)c1O.Cl [Cpd 259, 6-{4-[(1R,5S,6s)-6-amino-3-azabicyclo[3.1.0]hex-3-yl]phenyl}-4-hydroxy-5-methyl-2-oxo-1,2-dihydropyridine-3-carboxylic acid hydrochloride]															MIC, BAS849 [1, 15]: **** (an MIC value of ≦1.0 μg/mL is indicated by four stars (****)); MIC, 25922 [2]: *** (an MIC value between >1.0 μg/mL and ≦3.5 μg/mL is indicated by three stars (***)); MIC, 29213 [3]: * (an MIC value between >12.5 μg/mL and ≦150 μg/mL is indicated by a single star (*)); MIC, LZ3111 ([4]; quinolone resistant E. coli LZ3111): *** (an MIC value between >1.0 μg/mL and ≦3.5 μg/mL is indicated by three stars (***)); MIC ELZ4000 [5]: ** (an MIC value between >3.5 μg/mL and ≦12.5 μg/mL is indicated by two stars (**)); MIC ELZ4251 [6]: ** (an MIC value between >3.5 μg/mL and ≦12.5 μg/mL is indicated by two stars (**)); MIC BAA747 [7]: ** (an MIC value between >3.5 μg/mL and ≦12.5 μg/mL is indicated by two stars (**)); MIC 35657 [8]: *** (an MIC value between >1.0 μg/mL and ≦3.5 μg/mL is indicated by three stars (***)); MIC MMX2240 [9]: * (an MIC value between >12.5 μg/mL and ≦150 μg/mL is indicated by a single star (*)); MIC MMX1232 [10]: * (an MIC value between >12.5 μg/mL and ≦150 μg/mL is indicated by a single star (*)); MIC 27853 [11]: * (an MIC value between >12.5 μg/mL and ≦150 μg/mL is indicated by a single star (*)); MIC 49247 [12]: *** (an MIC value between >1.0 μg/mL and ≦3.5 μg/mL is indicated by three stars (***)); MIC 25238 [13]: ** (an MIC value between >3.5 μg/mL and ≦12.5 μg/mL is indicated by two stars (**)); MIC 13090 [14]: **** (an MIC value of ≦1.0 μg/mL is indicated by four stars (****))
CCc1c(-c2ccc(N3C[C@H]4CCC[C@@H](N(C)C)[C@H]4C3)cc2)[nH]c(=O)c(C(=O)O)c1O.Cl [Cpd 261, 6-{4-[(3aR,4R,7aS)-4-(dimethylamino)octahydro-2H-isoindol-2-yl]phenyl}-5-ethyl-4-hydroxy-2-oxo-1,2-dihydropyridine-3-carboxylic acid hydrochloride]	< 1	3.5 to 12.5	3.5 to 12.5	1 to 3.5	12.5 to 150	3.5 to 12.5	12.5 to 150	12.5 to 150	12.5 to 150	12.5 to 150	12.5 to 150	12.5 to 150	3.5 to 12.5	< 1	
CCc1c(-c2ccc(N3C[C@H]4CCC[C@@H](N)[C@H]4C3)cc2)[nH]c(=O)c(C(=O)O)c1O.O=C(O)C(F)(F)F [Cpd 262, 6-{4-[(3aR,4R,7aS)-4-aminooctahydro-2H-isoindol-2-yl]phenyl}-5-ethyl-4-hydroxy-2-oxo-1,2-dihydropyridine-3-carboxylic acid trifluoroacetate]		1 to 3.5	3.5 to 12.5	< 1	1 to 3.5	1 to 3.5	3.5 to 12.5	1 to 3.5	1 to 3.5	12.5 to 150	12.5 to 150	3.5 to 12.5	3.5 to 12.5	1 to 3.5	MIC [1]: < 1 mg/L
CCc1c(-c2ccc(N3C[C@H]4CC[C@@H](N(C)C)[C@H]4C3)cc2)[nH]c(=O)c(C(=O)O)c1O.Cl [Cpd 263, 6-{4-[(3aR,4R,6aS)-4-(dimethylamino)hexahydrocyclopenta[c]pyrrol-2(1H)-yl]phenyl}-5-ethyl-4-hydroxy-2-oxo-1,2-dihydropyridine-3-carboxylic acid hydrochloride]	< 1	1 to 3.5	12.5 to 150	3.5 to 12.5	12.5 to 150	12.5 to 150	3.5 to 12.5	3.5 to 12.5	12.5 to 150	12.5 to 150	12.5 to 150	3.5 to 12.5	1 to 3.5	1 to 3.5	
CCc1c(-c2ccc(N3C[C@H]4CC[C@@H](N)[C@H]4C3)cc2)[nH]c(=O)c(C(=O)O)c1O.Cl [Cpd 264, 6-{4-[(3aR,4R,6aS)-4-aminohexahydrocyclopenta[c]pyrrol-2(1H)-yl]phenyl}-5-ethyl-4-hydroxy-2-oxo-1,2-dihydropyridine-3-carboxylic acid hydrochloride]	< 1	1 to 3.5	3.5 to 12.5	1 to 3.5	12.5 to 150	3.5 to 12.5	12.5 to 150	3.5 to 12.5	12.5 to 150	12.5 to 150	12.5 to 150	3.5 to 12.5	1 to 3.5	< 1	
CCc1c(-c2ccc(N3C[C@H]4CC[C@H](N)[C@H]4C3)cc2)[nH]c(=O)c(C(=O)O)c1O.O=C(O)C(F)(F)F [Cpd 265, 6-{4-[(3aR,4S,6aS)-4-aminohexahydrocyclopenta[c]pyrrol-2(1H)-yl]phenyl}-5-ethyl-4-hydroxy-2-oxo-1,2-dihydropyridine-3-carboxylic acid trifluoroacetate]		3.5 to 12.5	12.5 to 150	3.5 to 12.5	12.5 to 150	3.5 to 12.5	12.5 to 150	3.5 to 12.5	12.5 to 150	12.5 to 150	12.5 to 150	12.5 to 150	3.5 to 12.5	1 to 3.5	MIC [1]: 1 to 3.5 mg/L
